Assay results published in the NIST ThermoML archive (doi:10.1016/j.fluid.2008.11.013).

How the values were obtained:
[1] = 101.33 kPa, Liquid, Vibrating tube method
[2] = excess molar enthalpy (molar enthalpy of mixing); xn = mol fraction of the nth substance listed; settings: Liquid, Flow calorimetry
[3] = activity coefficient (dimensionless); of the first substance listed, at infinite dilution; xn = mol fraction of the nth substance listed; settings: Liquid, Chromatography, x1 = 0

CCCCCCCC[N+]1(C)CCCC1.O=S(=O)([N-]S(=O)(=O)C(F)(F)F)C(F)(F)F
[1]
Settings | mass density [kg/m3]
298.15 K | 1291.2
303.15 K | 1286.9
308.14 K | 1283
313.15 K | 1279.1
318.15 K | 1275.1
323.14 K | 1271.4
328.14 K | 1267.5
333.14 K | 1263.7
338.14 K | 1259.7
343.14 K | 1255.7
348.15 K | 1251.7

CCCCCC[N+]1(C)CCCC1.O=S(=O)([N-]S(=O)(=O)C(F)(F)F)C(F)(F)F
[1]
Settings | mass density [kg/m3]
278.16 K | 1352.1
283.14 K | 1347.7
288.14 K | 1343.4
293.15 K | 1339.5
298.14 K | 1335.3
303.14 K | 1331.1
308.14 K | 1326.8
313.14 K | 1322.6
318.14 K | 1318.3
323.14 K | 1314.1
328.14 K | 1309.9
333.14 K | 1305.6
338.15 K | 1301.4
343.14 K | 1297.1

CCCC[N+]1(C)CCCC1.O=S(=O)([N-]S(=O)(=O)C(F)(F)F)C(F)(F)F + C=CCCCC
[2], 363.15 K, 2239 kPa
Settings | excess molar enthalpy [kcal/mol]
x2 = 0.0587 | 0.0332
x2 = 0.1135 | 0.064
x2 = 0.1647 | 0.0835
x2 = 0.2579 | 0.104
x2 = 0.3781 | 0.11
x2 = 0.4477 | 0.0987
x2 = 0.5104 | 0.0864
x2 = 0.6185 | 0.0666
x2 = 0.7086 | 0.0533
x2 = 0.7849 | 0.0399
x2 = 0.8795 | 0.0203

CCCCCC[N+]1(C)CCCC1.O=S(=O)([N-]S(=O)(=O)C(F)(F)F)C(F)(F)F + CCCCC
[2], 363.15 K, 2135 kPa
Settings | excess molar enthalpy [kcal/mol]
x2 = 0.0699 | 0.265
x2 = 0.1337 | 0.052
x2 = 0.1921 | 0.0702
x2 = 0.2952 | 0.096
x2 = 0.341 | 0.105
x2 = 0.4229 | 0.0964
x2 = 0.4942 | 0.0849
x2 = 0.5568 | 0.0741
x2 = 0.6615 | 0.056
x2 = 0.7457 | 0.0418
x2 = 0.8147 | 0.031
x2 = 0.8979 | 0.0187
x2 = 0.9635 | 0.00796

CCCCCC[N+]1(C)CCCC1.O=S(=O)([N-]S(=O)(=O)C(F)(F)F)C(F)(F)F + CCCCCC
[2], 363.15 K, 1720 kPa
Settings | excess molar enthalpy [kcal/mol]
x2 = 0.067 | 0.0295
x2 = 0.1285 | 0.0574
x2 = 0.1852 | 0.0807
x2 = 0.2375 | 0.1
x2 = 0.2859 | 0.114
x2 = 0.3309 | 0.116
x2 = 0.483 | 0.0924
x2 = 0.6514 | 0.0629

C=CCCCCC [1-heptene] + CCCC[N+]1(C)CCCC1.O=S(=O)([N-]S(=O)(=O)C(F)(F)F)C(F)(F)F
[2], 413.15 K, 2239 kPa
Settings | excess molar enthalpy [kcal/mol]
x1 = 0.0525 | 0.0322
x1 = 0.1022 | 0.0621
x1 = 0.1492 | 0.0898
x1 = 0.2762 | 0.113
x1 = 0.3509 | 0.1
x1 = 0.4189 | 0.0913
x1 = 0.481 | 0.0807
x1 = 0.5904 | 0.0622
x1 = 0.6838 | 0.0501
x1 = 0.7643 | 0.035
x1 = 0.8664 | 0.0204
x1 = 0.9511 | 0.00911

C=CCCCCCC [oct-1-ene] + CCCCCCCC[N+]1(C)CCCC1.O=S(=O)([N-]S(=O)(=O)C(F)(F)F)C(F)(F)F
[3]
Settings | activity coefficient
313.11 K | 5.53
323.14 K | 5.4
333.17 K | 5.27
343.21 K | 5.21

C=CCCCCCC [oct-1-ene] + CCCCCC[N+]1(C)CCCC1.O=S(=O)([N-]S(=O)(=O)C(F)(F)F)C(F)(F)F
[3]
Settings | activity coefficient
303.14 K | 8.93
313.16 K | 8.61
323.37 K | 8.39
333.16 K | 8.2

CCCCCCCC [octane] + CCCCCCCC[N+]1(C)CCCC1.O=S(=O)([N-]S(=O)(=O)C(F)(F)F)C(F)(F)F
[3]
Settings | activity coefficient
303.1 K | 8.78
313.15 K | 8.55
323.09 K | 8.39
333.13 K | 8.22

CCCCCCCC [octane] + CCCCCC[N+]1(C)CCCC1.O=S(=O)([N-]S(=O)(=O)C(F)(F)F)C(F)(F)F
[3]
Settings | activity coefficient
303.16 K | 15.8
313.16 K | 14.7
323.15 K | 13.9
333.12 K | 13.3

CCCCC [pentane] + CCCCCC[N+]1(C)CCCC1.O=S(=O)([N-]S(=O)(=O)C(F)(F)F)C(F)(F)F
[3]
Settings | activity coefficient
303.15 K | 5.66
313.19 K | 5.31
323.16 K | 4.8
333.14 K | 4.51
